Laboratory results from patent EP2965760A1, “Combination of antiretroviral agents for use in the prevention or treatment of chronic inflammatory diseases” (Université de Montpellier, priority 2014, dated 2016).
Entries after “also recorded” stand apart in the source; their conditions may differ.

Columns and labels:
SCC12B2 cell line = assay: Organotypic 3D reconstructed skin culture, cell differentiation (marker staining); type: cell-based, human; conditions: SCC12B2-derived 3D reconstructed skin; for effect on cell differentiation (staining for psoriasine and cytokeratin 10): 100 µM for 21 days, immunofluorescence; for effect on cell differentiation: result in words
endogenous RT activities = assay: Endogenous reverse transcriptase activity in extracts of ARV-treated 3D reconstructed skin (colorimetric Mn2+ and Mg2+ RT kit); type: cell-based, human; conditions: Mn2+ and Mg2+ dependent; reconstructed skin from SCC12F2, SCC12B2 and primary keratinocytes; result in words
From the text: Endogenous RT activities are increased in the psoriatic lesion when compared to non lesional psoriatic skin or normal skin extracts. […] The origin and the nature of these proteins are unknown but considering that the disease is not transmissible horizontally they should be attributed to endogenous proteins. In fact several cellular proteins including telomerase, LINE ORF2 and RT from human endogenous retroviruses (HERV) harbour a reverse transcriptase activity. LINE ORF2 is a Mg^2+-dependent RT, like RTs of the HERVs belonging to the MMTV-like group. The MLV-like HERV group harbours a Mn^2+-dependent RT. Effects of ARV on these activities was assessed in 3D culture models: Various reconstructed skin were assessed for RT inhibition through RTI treatment. They were generated from SSC12F2 and SCC12B2 cell lines and from normal primary keratinocytes (KN).
Reverse transcriptase assay : Protein extracts were prepared by crushing the cryostat skin sections (100 µm) in liquid nitrogen, incubating in ice-cold lysis buffer (10 mM Tris-HCl pH 7.5, 1 mM MgCl2, 1 mM EDTA, 0.1 mM PMSF, 5 mM β-mercaptoethanol, 0.5 % CHAPS, 10 % glycerol, 1 % NP40) and then subjected to three freeze/thaw cycles (LN2/4°C). […] RT activities were quantified with colorimetric highly sensitive Mn^2+ and Mg^2+ RT kit (Cavidi, Uppsala, Sweden) according to the manufacturer's instructions. […]

keratinocytes [1] = assay: IL-6 secretion by keratinocytes upon RT induction, time course (protocol of figure 5); type: cell-based; conditions: ARV after demethylating treatment; result in words
Protocol: (§1) • Figures 1A-C represent the expression of cytokeratin 10 on SCC12B2-derived 3D reconstructed skin detected by immunohistochemistry. • Figure 1A represents untreated SCC12B2-derived 3D reconstructed skin. • Figure 1B represents SCC12B2-derived 3D reconstructed skin treated by AZT (100 µM) for 21 days: • Figure 1C: represents SCC12B2-derived 3D reconstructed skin treated by efavirenz (100 µM) for 21 days. Arrow indicates cytokeratin 10 expression. • Figures 2A-D represent the expression of psoriasine on SCC12B2-derived 3D reconstructed skin detected by immunofluorescence. • Figure 2A represents untreated SCC12B2-derived 3D reconstructed skin. • Figure 2B represents SCC12B2-derived 3D reconstructed skin treated by AZT (100 µM) for 21 days: • Figure 2C represents SCC12B2-derived 3D reconstructed skin treated by Lamivudine (100 µM) for 21 days. • Figure 2D represents SCC12B2-derived 3D reconstructed skin treated by AZT (100 µM) and Lamivudine (100 µM) for 21 days. […]

keratinocytes [2] = assay: IL-6 production by keratinocytes, ARVs given concomitantly with stimulation of RT activity; type: cell-based; conditions: ARV concomitant with treatment that stimulated RT activity; result in words
Protocol: as §1

keratinocytes [3] = assay: Cytokine production by keratinocytes after demethylating treatment (protocol of figure 5, Day 7); type: cell-based; conditions: after demethylation treatment
Protocol: • Figures 1A-C represent the expression of cytokeratin 10 on SCC12B2-derived 3D reconstructed skin detected by immunohistochemistry. • Figure 1A represents untreated SCC12B2-derived 3D reconstructed skin. • Figure 1B represents SCC12B2-derived 3D reconstructed skin treated by AZT (100 µM) for 21 days: • Figure 1C: represents SCC12B2-derived 3D reconstructed skin treated by efavirenz (100 µM) for 21 days. Arrow indicates cytokeratin 10 expression. • Figures 2A-D represent the expression of psoriasine on SCC12B2-derived 3D reconstructed skin detected by immunofluorescence. • Figure 2A represents untreated SCC12B2-derived 3D reconstructed skin. • Figure 2B represents SCC12B2-derived 3D reconstructed skin treated by AZT (100 µM) for 21 days: • Figure 2C represents SCC12B2-derived 3D reconstructed skin treated by Lamivudine (100 µM) for 21 days. • Figure 2D represents SCC12B2-derived 3D reconstructed skin treated by AZT (100 µM) and Lamivudine (100 µM) for 21 days. White staining denoted psoriasine expression. • Figures 3A-D represent the expression of cytokeratin 10 on SCC12B2-derived 3D reconstructed skin detected by immunofluorescence. • Figure 3A. represents untreated SCC12B2-derived 3D reconstructed skin. • Figure 3B represents SCC12B2-derived 3D reconstructed skin treated by AZT (100 µM) for 21 days: • Figure 3C represents SCC12B2-derived 3D reconstructed skin treated by lamividune (100 µM) for 21 days; • Figure 3D represents SCC12B2-derived 3D reconstructed skin treated with a combination of AZT (100 µM) and lamivudine (100 µM). White staining denoted cytokeratin 10 expression. • Figure 4 represents a histogram showing the level of endogenous RT activity in 3D reconstructed skin from various cell lines: PC F2 (A), PC B2 (B) or PC KN (C). PC F2 were obtained from the SCC12F2 cell line; PC B2 from the SCC12B2 cell line and PC KN from primary cultured human keratinocytes. Treatment were either azidothymidine (AZT; 2.) or efavirenz (3.) compared to the control (untreated; 1.). • Figure 5 represents a fow chart of the different treatments that aim at mimicking the initiating events of the psoriatic lesions • Figure 6 represents a histogram showing the level of the indicated cytokine production by keratinocytes at Day 7 of the protocol described in figure 5. Data were normalized versus control condition (fold increase in arbitrary unit). 1: IL-17 A; 2: IFN-γ; 3: TNF-α, 4: IL-1 RA and 5: IP-10. White columns represent the expression level in control cells. Black columns represent the expression level in cells treated with deoxyuridine, Grey columns represent the expression level in cells treated with desoxyuridine and Eviplera®. Hatched columns represent the expression level in cells treated with desoxyuridine and rilpivirine. Columns with dots represent the expression level in cells treated with desoxyuridine and efavirenz. • Figure 7 represents a graph showing time course (D0: Day 0; D2: Day 2; D5: Day 5; D7: Day 7) of the level of IL-6 production (fold increase) by keratinocytes according to the protocol described in figure 5. The expression is normalized to control at the corresponding time point. Diamond shape = untreated cells; Filled square = demethylating treated cells; Open square = treated with AZT; Filled circle = treated with lamivudine; Open circle = treated with Eviplera®. • Figure 8 represents a graph showing effects of ARVs upon simultaneous stimulation of RT activities on the production of IL-6 by keratinocytes. Values are normalized versus control. Filled diamond shape = control; Filled square = treated with demethylating agent; Triangle = treated with demethylating agent + Eviplera®; open diamond shape = treated with demethylating agent + lamivudine; Open circle = treated with demethylating agent + AZT; Filled circle = treated with demethylating agent + AZT + Lamivudine. […]

Row | Compound | effect on cell differentiation (staining for psoriasine and cytokeratin 10) (SCC12B2 cell line) | effect on cell differentiation (SCC12B2 cell line) | endogenous RT activities (endogenous RT activities) | effect on the synthesis of IL-6 (keratinocytes [1]) | effect on the synthesis of IL-6 (keratinocytes [2]) | IFN-α expression decreased (keratinocytes [3]) | IP10 expression decreased (keratinocytes [3]) | further results
1 | Cc1cn([C@H]2C[C@H](N=[N+]=[N-])[C@@H](CO)O2)c(=O)[nH]c1=O [AZT, Zidovudine] | Neither AZT, nor lamivudine has effect | no effect; also recorded: no or minor effects | less effective | neither AZT nor lamivudine have effect | no effect |  |  | 
2 | O=C1Nc2ccc(Cl)cc2[C@@](C#CC2CC2)(C(F)(F)F)O1 [Efavirenz] |  | reverses the "tumoral" phenotype of SCC12B2 cell line | decreased endogenous RT activities of both type |  |  | more than 50% | more than 50% | effect on cell differentiation (SCC12B2 cell line; listed as efavirenz): impact cell differentiation; IL17A expression (keratinocytes [3]): undetectable; TNF-α production (keratinocytes [3]): potent induction
3 | Cc1cc(C#N)cc(C)c1Oc1nc(Nc2ccc(C#N)cc2)nc(N)c1Br [Etravirine] |  | no or minor effects |  |  |  |  |  | 
4 | Cc1cc(/C=C/C#N)cc(C)c1Nc1ccnc(Nc2ccc(C#N)cc2)n1 [Rilpivirine] |  |  |  |  |  | more than 50% | more than 50% | 
5 | C[C@H](Cn1cnc2c(N)ncnc21)OCP(=O)(O)O [Tenofovir] |  | impact cell differentiation |  |  |  |  |  | 
6 | Nc1ccn([C@H]2CS[C@@H](CO)O2)c(=O)n1 [lamivudine, 2',3'-dideoxy-3'-thiacytidine] | Neither AZT, nor lamivudine has effect |  |  | neither AZT nor lamivudine have effect | no effect |  |  | 
